# Laboratory results taken from article PMC6695355, “Alanine Scanning Studies of the Antimicrobial Peptide Aurein 1.2” (Probiotics and Antimicrobial Proteins, 2018).
# Where a SMILES comes first, the peptide text is derived from it.
# Columns and labels:
# [1] = tested on: S. aureus ATCC 25923 biofilm formation; format: cell-based, Staphylococcus aureus; details: ATCC 25923, 24 h
# Procedure, shortened: (§1)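 Broth microdilution per CLSI, 1–512 μg/mL; bacteria 0.5 × 10^5 CFU/mL in MHB, 37 °C 18 h; C. albicans 2 × 10^3 CFU/mL in RPMI-1640, 24 h; MIC = lowest concentration visibly inhibiting growth. MBEC: 24-h biofilms, PBS-rinsed, compound 24 h at 37 °C, resazurin read after 1 h. MBIC: compound with inoculum 24 h, then resazurin 1 h; cut-off ≤10% reduction versus controls.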
# [2] = tested on: S. aureus ATCC 25923 biofilm; format: cell-based, Staphylococcus aureus; details: ATCC 25923, 24 h
# Procedure, shortened: as §1
# S. aureus ATCC 25923 = format: cell-based, Staphylococcus aureus; details: ATCC 25923, 18 h
# Procedure, shortened: as §1
# [3] = tested on: E. faecalis PCM 2673 biofilm formation; format: cell-based, Enterococcus faecalis; details: 24 h
# Procedure, shortened: as §1
# [4] = tested on: E. faecalis PCM 2673 biofilm; format: cell-based, Enterococcus faecalis; details: 24 h
# Procedure, shortened: as §1
# E. faecalis PCM 2673 = format: cell-based, Enterococcus faecalis; details: PCM 2673, 18 h
# Procedure, shortened: as §1
# [5] = tested on: E. coli ATCC 25922 biofilm formation; format: cell-based, Escherichia coli; details: ATCC 25922, 24 h
# Procedure, shortened: as §1
# [6] = tested on: E. coli ATCC 25922 biofilm; format: cell-based, Escherichia coli; details: ATCC 25922, 24 h
# Procedure, shortened: as §1
# E. coli ATCC 25922 = format: cell-based, Escherichia coli; details: ATCC 25922, 18 h
# Procedure, shortened: as §1
# [7] = tested on: P. aeruginosa ATCC 9027 biofilm formation; format: cell-based, Pseudomonas aeruginosa; details: ATCC 9027, 24 h
# Procedure, shortened: as §1
# [8] = tested on: P. aeruginosa ATCC 9027 biofilm; format: cell-based, Pseudomonas aeruginosa; details: ATCC 9027, 24 h
# Procedure, shortened: as §1
# [9] = tested on: C. albicans ATCC 10231 biofilm formation; format: cell-based, Candida albicans; details: ATCC 10231, 24 h
# Procedure, shortened: as §1
# [10] = tested on: C. albicans ATCC 10231 biofilm; format: cell-based, Candida albicans; details: ATCC 10231, 24 h
# Procedure, shortened: as §1
# C. albicans ATCC 10231 = format: cell-based, Candida albicans; details: ATCC 10231, 24 h
# Procedure, shortened: as §1
# [11] = tested on: human red blood cells (RBCs); assay: Hemolysis assay; format: cell-based; details: red cells of human, 1 h
# Procedure, shortened: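 Fresh EDTA-anticoagulated human erythrocytes were PBS-washed and used at 4% (v/v) with peptide at 1–256 μg/mL in PBS for 1 h at 37 °C. Hemoglobin release in the supernatant was read at 540 nm. PBS set 0% and 1% Triton X-100 set 100% hemolysis; run in triplicate.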
# in vitro = in vitro ADME; details: bovine, serum
# Procedure, shortened: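 Peptides incubated in 25% (v/v) fetal bovine serum in PBS at 37 °C, quenched with ice-cold acetonitrile at t0 and 6 h. Intact peptide quantified by RP-HPLC-MS in selected ion recording mode; % remaining = peak area at 6 h / peak area at t0.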
# [12] = format: physicochemical; details: pH 7.4
# P. aeruginosa ATCC 9027 = format: cell-based, Pseudomonas aeruginosa; details: ATCC 9027, 18 h
# Procedure, shortened: as §1
"MIC, S. aureus ATCC 25923 (S. aureus ATCC 25923) [µg/mL]","MIC, E. faecalis PCM 2673 (E. faecalis PCM 2673) [µg/mL]","MIC, E. coli ATCC 25922 (E. coli ATCC 25922) [µg/mL]","MIC, C. albicans ATCC 10231 (C. albicans ATCC 10231) [µg/mL]",Structure (SMILES),"MBIC, S. aureus ATCC 25923 [1] [µg/mL]","MBEC, S. aureus ATCC 25923 [2] [µg/mL]","MBIC, E. faecalis PCM 2673 [3] [µg/mL]","MBEC, E. faecalis PCM 2673 [4] [µg/mL]","MBIC, E. coli ATCC 25922 [5] [µg/mL]","MBEC, E. coli ATCC 25922 [6] [µg/mL]","MBIC, P. aeruginosa ATCC 9027 [7] [µg/mL]","MBEC, P. aeruginosa ATCC 9027 [8] [µg/mL]","MBIC, C. albicans ATCC 10231 [9] [µg/mL]","MBEC, C. albicans ATCC 10231 [10] [µg/mL]",Percentage of hemolysis at 1 μg/mL [11] [%],Percentage of hemolysis at 2 μg/mL [11] [%],Percentage of hemolysis at 4 μg/mL [11] [%],Percentage of hemolysis at 8 μg/mL [11] [%],Percentage of hemolysis at 16 μg/mL [11] [%],Percentage of hemolysis at 32 μg/mL [11] [%],also measured
32,64,64,32,CC[C@H](C)[C@H](NC(=O)[C@H](CCCCN)NC(=O)[C@H](CCCCN)NC(=O)[C@@H](NC(=O)[C@@H](NC(=O)[C@H](CC(=O)O)NC(=O)[C@H](Cc1ccccc1)NC(=O)[C@H](CC(C)C)NC(=O)CN)[C@@H](C)CC)[C@@H](C)CC)C(=O)N[C@@H](C)C(=O)N[C@@H](CCC(=O)O)C(=O)N[C@@H](C)C(=O)N[C@@H](Cc1ccccc1)C(N)=O [Peptide S12A] (H-GLFDIIKKIAEAF-NH2),32,> 512,128,128,32,> 512,>512,> 512,2,256,0.0,0.0,0.0,0.0,1.2,6.5,"Percentage of hemolysis at 64 μg/mL [11]: 12.0%; Percentage of hemolysis at 128 μg/mL [11]: 15.4%; Percentage of hemolysis at 256 μg/mL [11]: 23.5%; remaining at 6 h, 0.125 mg/mL (in vitro): 77%; Solubility in surfactant-free phosphate buffer [12]: poor solubility"
128,64,64,32,CC[C@H](C)[C@H](NC(=O)[C@H](CCCCN)NC(=O)[C@H](CCCCN)NC(=O)[C@@H](NC(=O)[C@@H](NC(=O)[C@H](CC(=O)O)NC(=O)[C@H](Cc1ccccc1)NC(=O)[C@H](CC(C)C)NC(=O)CN)[C@@H](C)CC)[C@@H](C)CC)C(=O)N[C@@H](C)C(=O)N[C@@H](CCC(=O)O)C(=O)N[C@@H](CO)C(=O)N[C@@H](Cc1ccccc1)C(N)=O [aurein 1.2] (H-GLFDIIKKIAESF-NH2),128,128,128,> 512,128,64,128,512,2,256,0.0,0.1,0.0,0.0,0.4,0.5,"MIC, P. aeruginosa ATCC 9027 (P. aeruginosa ATCC 9027): 256 µg/mL; Percentage of hemolysis at 64 μg/mL [11]: 4.5%; Percentage of hemolysis at 128 μg/mL [11]: 19.2%; Percentage of hemolysis at 256 μg/mL [11]: 58.8%; remaining at 6 h, 0.125 mg/mL (in vitro): 65%"
